Data: patent US10208089B2, “Modulation of complement activity” (priority 2014, dated 2019)
Like-named read-outs stand apart in the source and are kept apart here. Starred links: 1 amine or outer side, 2 acyl side, 3 side chain; linkers in the order of their positions; H or OH if unused. Positions of bridges follow the written chain, without caps; N, C: chain ends. Non-standard residues stand in square brackets, D forms with d. Residues, ends and D or L forms follow the SMILES beside them. Trp(7-aza) = N[C@@H](Cc1c[nH]c2ncccc12)C(=O)O; pXylylene = c1cc(C[*:2])ccc1C[*:1]; Phg = N[C@H](C(=O)O)c1ccccc1; NMeS = CN[C@@H](CO)C(=O)O; Nva = CCC[C@H](N)C(=O)O

What was measured:
C5 [1] = target: T1, C5 (Homo sapiens, UniProt P01031); assay: Competitive fluorescence polarization assay with probe R3076; type: binding; set-up: purchased Complement Technology, Tyler, Tex
T1 sequence (P01031 19-1676): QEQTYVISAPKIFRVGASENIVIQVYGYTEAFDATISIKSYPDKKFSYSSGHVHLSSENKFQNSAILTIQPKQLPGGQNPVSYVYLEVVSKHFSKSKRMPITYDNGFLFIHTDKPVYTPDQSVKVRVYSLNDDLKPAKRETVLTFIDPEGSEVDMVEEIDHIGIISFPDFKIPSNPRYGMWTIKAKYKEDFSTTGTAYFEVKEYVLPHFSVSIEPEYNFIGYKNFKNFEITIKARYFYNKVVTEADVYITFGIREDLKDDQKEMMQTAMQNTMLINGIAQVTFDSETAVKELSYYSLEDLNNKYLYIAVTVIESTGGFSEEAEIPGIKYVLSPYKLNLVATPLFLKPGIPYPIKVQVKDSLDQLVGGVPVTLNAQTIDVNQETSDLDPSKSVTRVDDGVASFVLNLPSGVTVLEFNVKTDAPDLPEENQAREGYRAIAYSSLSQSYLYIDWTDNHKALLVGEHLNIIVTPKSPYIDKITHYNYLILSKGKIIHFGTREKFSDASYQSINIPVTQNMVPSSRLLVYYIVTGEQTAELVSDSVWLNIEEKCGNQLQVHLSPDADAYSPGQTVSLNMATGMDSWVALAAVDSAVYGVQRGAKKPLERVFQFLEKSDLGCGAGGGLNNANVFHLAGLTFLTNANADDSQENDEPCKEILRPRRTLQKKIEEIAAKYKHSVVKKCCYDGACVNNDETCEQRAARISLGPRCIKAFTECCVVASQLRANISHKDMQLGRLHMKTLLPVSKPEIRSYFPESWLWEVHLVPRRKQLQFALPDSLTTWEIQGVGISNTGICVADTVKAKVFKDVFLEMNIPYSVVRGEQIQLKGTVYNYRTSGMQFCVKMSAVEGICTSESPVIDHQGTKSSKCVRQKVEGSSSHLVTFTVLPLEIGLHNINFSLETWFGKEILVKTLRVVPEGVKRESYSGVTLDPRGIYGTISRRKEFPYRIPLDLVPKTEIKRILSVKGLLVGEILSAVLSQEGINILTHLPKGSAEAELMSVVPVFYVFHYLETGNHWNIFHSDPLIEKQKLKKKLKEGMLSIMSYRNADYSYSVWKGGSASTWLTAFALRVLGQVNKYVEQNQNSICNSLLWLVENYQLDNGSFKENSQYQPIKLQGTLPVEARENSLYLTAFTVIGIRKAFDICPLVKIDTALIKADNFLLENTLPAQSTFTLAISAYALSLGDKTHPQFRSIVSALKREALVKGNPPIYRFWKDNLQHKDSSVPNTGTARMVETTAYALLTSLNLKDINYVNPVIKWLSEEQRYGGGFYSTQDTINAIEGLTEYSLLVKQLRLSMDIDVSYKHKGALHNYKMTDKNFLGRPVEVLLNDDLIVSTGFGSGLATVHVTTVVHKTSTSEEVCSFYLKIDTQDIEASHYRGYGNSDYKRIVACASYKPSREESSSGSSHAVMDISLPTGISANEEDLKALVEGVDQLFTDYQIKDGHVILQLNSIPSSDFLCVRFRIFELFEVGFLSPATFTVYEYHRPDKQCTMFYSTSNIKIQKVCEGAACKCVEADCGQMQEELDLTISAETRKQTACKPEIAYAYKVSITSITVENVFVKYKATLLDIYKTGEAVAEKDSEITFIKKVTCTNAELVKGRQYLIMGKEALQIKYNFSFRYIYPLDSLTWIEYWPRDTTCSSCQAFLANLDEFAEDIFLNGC
Procedure: FP allows binding events to be measured in a homogenous solution.
Polarization was measured over time, until binding reached equilibrium. KD was determined using Graphpad Prism (using “Saturating Binding Curves, One Site—Specific Binding With Hill Slope” as the curve fit to determine KD).
10 μl of this working stock was then added to each well in the assay plate. The assay plate was incubated at room temperature, protected from light, for 20 minutes to allow binding to reach equilibrium.
Test articles listed in Table 7 were subsequently diluted in DMSO then assay buffer, comprising 10 2-fold dilutions and were then added to the assay plate in triplicate, rapidly. The assay plate was then incubated in the Paradigm (Molecular Devices, Sunnyvale, Calif.) plate reader for 60 minutes at 25° C.
After incubation for 60 minutes, the plate was read using the Paradigm FP protocol (Molecular Devices, Sunnyvale, Calif.) and raw polarization values were imported into Graphpad Prism.

[2] = Compound stability in human plasma; type: in vitro ADME
Procedure: Compounds were assayed for stability in human plasma under the following conditions. Human plasma was obtained from Bioreclamation (Westbury, N.Y.) and collected in sodium heparin. Plasma was adjusted to pH 7.4. DMSO stocks at 10 mM concentration were prepared for the test compounds. Aliquots of the DMSO solutions were dosed into 1 mL of plasma, which had been pre-warmed to 37° C., at a final test compound concentration of 10 μM. The vials were kept in a benchtop THERMOMIXER® (Eppendorf, Hauppauge, N.Y.) for the duration of the experiment. Aliquots (100 μL) were taken at each timepoint and added to a 96-well plate that had been pre-filled with 300 μL of an acetonitrile solution containing mixture of the internal standards (metoprolol, propranolol and warfarin each at 500 ng/mL). […] Aliquots of the supernatant were removed and analyzed by LC-HRAMS.

C5 [3] = target: T1, C5; assay: Human hemolysis assay (RBC lysis assay using complete human sera); type: cell-based; set-up: with complete human sera (Complement Technology, Tyler Tex.) and polypeptides; tissue Complement Technology, Tyler Tex; host or cells: complete human serum; conditions: inhibition of lysis of antibody-sensitized sheep erythrocytes, complete human sera
C5 [4] = target: T1, C5; assay: Alternative human hemolysis assay using C5 depleted sera and purified human C5; type: cell-based; set-up: purchased Complement Technology, Tyler, Tex; conditions: antibody-sensitized sheep erythrocytes, 1.5% human C5 depleted sera and 0.5 nM purified human C5
rat C5 = target: T2, rat C5 (Rattus norvegicus, UniProt P08650); assay: Ex vivo hemolysis assays in the rat study
T2 construct: from tissue; host or cells: plasma of dosed male rats
T2 sequence (P08650 19-1681): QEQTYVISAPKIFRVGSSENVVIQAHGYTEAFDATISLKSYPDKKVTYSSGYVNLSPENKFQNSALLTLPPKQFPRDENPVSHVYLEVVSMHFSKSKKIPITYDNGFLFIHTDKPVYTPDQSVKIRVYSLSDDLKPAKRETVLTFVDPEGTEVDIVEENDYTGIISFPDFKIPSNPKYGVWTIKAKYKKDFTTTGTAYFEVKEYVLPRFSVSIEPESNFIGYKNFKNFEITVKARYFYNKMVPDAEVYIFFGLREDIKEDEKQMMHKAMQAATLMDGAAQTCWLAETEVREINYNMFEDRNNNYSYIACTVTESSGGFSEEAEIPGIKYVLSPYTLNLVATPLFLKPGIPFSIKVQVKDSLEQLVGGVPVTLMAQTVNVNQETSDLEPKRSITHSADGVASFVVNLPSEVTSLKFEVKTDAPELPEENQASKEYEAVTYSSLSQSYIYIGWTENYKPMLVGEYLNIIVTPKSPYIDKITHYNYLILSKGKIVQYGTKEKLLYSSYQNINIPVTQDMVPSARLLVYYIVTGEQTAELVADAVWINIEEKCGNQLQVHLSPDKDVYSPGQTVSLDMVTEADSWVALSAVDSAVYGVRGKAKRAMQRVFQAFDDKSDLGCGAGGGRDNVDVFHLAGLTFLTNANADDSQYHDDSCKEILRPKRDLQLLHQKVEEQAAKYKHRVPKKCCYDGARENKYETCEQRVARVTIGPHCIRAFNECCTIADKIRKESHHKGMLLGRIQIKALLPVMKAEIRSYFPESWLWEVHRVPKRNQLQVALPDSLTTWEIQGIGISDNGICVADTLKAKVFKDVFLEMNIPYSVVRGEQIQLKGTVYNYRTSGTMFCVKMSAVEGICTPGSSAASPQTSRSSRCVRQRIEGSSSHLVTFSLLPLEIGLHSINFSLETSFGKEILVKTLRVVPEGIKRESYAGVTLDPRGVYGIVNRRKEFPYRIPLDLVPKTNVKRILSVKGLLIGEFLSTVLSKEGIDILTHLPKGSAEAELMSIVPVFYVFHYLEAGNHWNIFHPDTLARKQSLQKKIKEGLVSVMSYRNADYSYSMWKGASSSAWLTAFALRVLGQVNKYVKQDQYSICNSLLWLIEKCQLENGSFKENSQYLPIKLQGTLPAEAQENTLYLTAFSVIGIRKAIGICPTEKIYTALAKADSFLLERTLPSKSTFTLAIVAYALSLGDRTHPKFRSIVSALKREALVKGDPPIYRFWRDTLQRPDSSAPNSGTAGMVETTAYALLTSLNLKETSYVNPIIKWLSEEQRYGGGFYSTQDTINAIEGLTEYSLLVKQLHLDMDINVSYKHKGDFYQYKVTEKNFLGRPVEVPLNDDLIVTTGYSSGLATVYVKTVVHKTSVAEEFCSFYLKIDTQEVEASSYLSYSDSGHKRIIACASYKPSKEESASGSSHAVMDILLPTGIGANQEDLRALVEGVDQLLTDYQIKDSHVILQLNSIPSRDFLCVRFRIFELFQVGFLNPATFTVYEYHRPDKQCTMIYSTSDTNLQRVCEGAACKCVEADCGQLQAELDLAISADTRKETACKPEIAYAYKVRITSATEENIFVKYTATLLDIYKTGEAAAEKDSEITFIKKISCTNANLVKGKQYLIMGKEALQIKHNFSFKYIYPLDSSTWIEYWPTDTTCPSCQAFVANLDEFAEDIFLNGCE

Work on `CCC[C@H](NC(=O)[C@@H]1CSCc2ccc(cc2)CSC[C@H](NC(=O)[C@H](CCC)NC(C)=O)C(=O)N[C@@H](c2ccccc2)C(=O)N[C@@H]([C@@H](C)O)C(=O)N[C@@H](Cc2c[nH]c3ncccc23)C(=O)N[C@@H](CCC(=O)O)C(=O)N[C@@H](Cc2ccc(O)cc2)C(=O)N(C)[C@@H](CO)C(=O)N[C@@H](Cc2c[nH]cn2)C(=O)N1)C(N)=O` [Compound R3050, [pXylyl(2,10)]Ac-Nvl-C-Phg-T-azaTrp-E-Y-(N-Me)S-H-C-Nvl-NH2] (Ac-[Nva]C[Phg]T[Trp(7-aza)]EY[NMeS]HC[Nva]-NH2; linker 2-10 via pXylylene) yielded an IC50 (C5 [1]; average of Exp 1 and Exp 2, read-out: Avg, nM IC50) of 280 nM, a Ki (C5 [1]; average of Exp 1 and Exp 2, read-out: Avg, nM Ki) of 64.3 nM and an IC50 (C5 [1]; competition with probe R3076 25 nM, C5 50 nM, 60 min at 25° C., experiment 1, read-out: IC50 nM, Exp 1) of 267 nM. It also gave a Ki (C5 [1]; competition with probe R3076 25 nM, C5 50 nM, 60 min at 25° C., experiment 1, read-out: Ki nM, Exp 1) of 71.1 nM, an IC50 (C5 [1]; competition with probe R3076 25 nM, C5 50 nM, 60 min at 25° C., experiment 2, read-out: IC50 nM, Exp 2) of 293 nM and a Ki (C5 [1]; competition with probe R3076 25 nM, C5 50 nM, 60 min at 25° C., experiment 2, read-out: Ki nM, Exp 2) of 57.6 nM. For the same compound, the “competition with labeled probe / affinity for C5 (in words)” value (C5 [1]; probe R3076 25 nM, C5 50 nM) was “relatively strong affinity”, the “stability in human plasma (in words)” value ([2]; 37° C., up to 24 hrs) was “highly stable” and the half-life at 10 μM ([2]; pH 7.4, 37° C., 10 μM) was over 24 h. For the same compound, the “Percent remaining at time (hrs): 0 hrs” value ([2]; pH 7.4, 37° C., 10 μM, 0 hrs) was 100%, the remaining at 2 h, 10 μM ([2]; plasma (collected in sodium heparin), pH 7.4, 37° C., 10 μM, 2 hrs, read-out: Percent remaining at time (hrs): 2 hrs) was 109% and the remaining at 4 h, 10 μM ([2]; plasma (collected in sodium heparin), pH 7.4, 37° C., 10 μM, 4 hrs, read-out: Percent remaining at time (hrs): 4 hrs) was 100%. The remaining at 12 h, 10 μM ([2]; plasma (collected in sodium heparin), pH 7.4, 37° C., 10 μM, 12 hrs, read-out: Percent remaining at time (hrs): 12 hrs) was 88%, the remaining at 24 h, 10 μM ([2]; plasma (collected in sodium heparin), pH 7.4, 37° C., 10 μM, 24 hrs, read-out: Percent remaining at time (hrs): 24 hrs) was 98.1% and the IC50 (C5 [3]) was 42.9 nM.
`CC(=O)N[C@H]1CCCCNC(=O)C[C@@H](C(=O)N(C)[C@@H](CC(=O)O)C(=O)N[C@H](C(=O)N[C@@H](Cc2ccc(O)cc2)C(=O)N[C@@H](Cc2c[nH]c3ncccc23)C(=O)N[C@@H](CCC(=O)O)C(=O)N[C@@H](Cc2ccc(O)cc2)C(=O)N2CCC[C@H]2C(=O)N[C@H](C(=O)N[C@@H](CCCCN)C(N)=O)C2CCCCC2)C(C)(C)C)NC(=O)[C@H](Cc2ccccc2)NC(=O)[C@H](CCCNC(=N)N)NC(=O)[C@H](CCC(=O)O)NC(=O)[C@H](C(C)C)NC1=O` [Compound R3192, [cyclo(1,6)]Ac-K-V-E-R-F-D-(N-Me)D-Tbg-Y-azaTrp-E-Y-P-Chg-K-NH2] gave an IC50 (C5 [4]) of 1.5 nM.
For `CCCCCCCCCCCCCCCC(=O)NCCCC[C@H](NC(=O)[C@@H](NC(=O)[C@@H]1CCCN1C(=O)[C@H](Cc1ccc(O)cc1)NC(=O)[C@H](CCC(=O)O)NC(=O)[C@H](Cc1c[nH]c2ncccc12)NC(=O)[C@H](Cc1ccc(O)cc1)NC(=O)[C@@H](NC(=O)[C@H](CC(=O)O)N(C)C(=O)[C@@H]1CC(=O)NCCCC[C@H](NC(C)=O)C(=O)N[C@@H](C(C)C)C(=O)N[C@@H](CCC(=O)O)C(=O)N[C@@H](CCCNC(=N)N)C(=O)N[C@@H](Cc2ccccc2)C(=O)N1)C(C)(C)C)C1CCCCC1)C(N)=O` [Compound R3194, [cyclo(1,6)]Ac-K-V-E-R-F-D-(N-Me)D-Tbg-Y-azaTrp-E-Y-P-Chg-(Lys-C16)-NH2], the IC50 (C5 [4]) was 15.5 nM.
In the case of `CCCCCCCCCCCCCCCC(=O)NCCCC[C@H](NC(=O)[C@@H](NC(=O)[C@@H]1CCCN1C(=O)[C@H](Cc1ccc(O)cc1)NC(=O)[C@H](CCC(=O)O)NC(=O)[C@H](Cc1c[nH]c2ncccc12)NC(=O)[C@H](Cc1ccc(O)cc1)NC(=O)[C@@H](NC(=O)[C@H](CC(=O)O)N(C)C(=O)[C@@H]1CSSCCC(=O)N[C@@H](C(C)C)C(=O)N[C@@H](CCC(=O)O)C(=O)N[C@@H](CCCNC(=N)N)C(=O)N[C@@H](Cc2ccccc2)C(=O)N1)C(C)(C)C)C1CCCCC1)C(=O)O` [Compound R3198, [cyclo(1,6)](desamino)C-V-E-R-F-C-(N-Me)D-Tbg-Y-azaTrp-E-Y-P-Chg-(Lys-C16)], the IC50 (C5 [4]) is reported as 142 nM.
In the case of `CCC[C@H](NC(=O)[C@@H](NC(=O)[C@@H]1CCCN1C(=O)[C@H](Cc1ccc(O)cc1)NC(=O)[C@H](CCC(=O)O)NC(=O)[C@H](Cc1c[nH]c2ncccc12)NC(=O)[C@H](Cc1ccc(O)cc1)NC(=O)[C@@H](NC(=O)[C@H](CC(=O)O)NC(=O)[C@@H]1CSCc2cccc(c2)CSC[C@H](NC(C)=O)C(=O)N[C@@H](C(C)C)C(=O)N[C@@H](CCC(=O)O)C(=O)N[C@@H](CCCNC(=N)N)C(=O)N[C@@H](Cc2ccccc2)C(=O)N1)C(C)(C)C)C1CCCCC1)C(=O)O` [Compound R3201, [mXylyl(1,6)]Ac-C-V-E-R-F-C-D-Tbg-Y-azaTrp-E-Y-P-Chg-Nvl], the “inhibitory activity in ex vivo hemolysis assays (in words)” value (rat C5) is reported as “very little inhibitory activity” and the “binding to rat C5 (in words)” value (rat C5; in vivo) is reported as “do not bind”.
